Measured values as given in article PMC10975765 (Pharmaceuticals, 2024).
Read-outs that look alike come from different tables or passages of the source.

Tests used:
[1] = system: Salmonella typhimurium TA1537; test: Bacterial reverse mutation test (Ames test), TA1537
Procedure: (§1) In brief, Salmonella typhimurium (TA98, TA100, TA102, TA1535, and TA1537) was cultured in a nutrient broth (12 mL) at 37 °C. […] Later, the mixture was added to 2 mL of top agar containing 0.5 mM L-histidine and 0.5 mM D-biotin. The mixture was agitated and poured onto the minimal agar plate and incubated at 37 °C for 48 h. All experiments were conducted in triplicate. The number of revertant colonies per plate was counted. The MR was calculated from the average of the revertant number divided by the average of negative control revertant number.

[2] = system: Salmonella typhimurium TA100
Procedure: as §1

[3] = system: Salmonella typhimurium TA1535
Procedure: as §1

[4] = rat, in vivo; cited from earlier work
[5] = target: acetylcholinesterase (AChE) (Electrophorus electricus, UniProt O42275); conditions: in combination with donepezil
Procedure: AChE and BChE inhibition were determined using well-established protocols without modifications. For BACE-1 inhibition, we complied with the manufacturer’s instructions (BACE-1 FRET assay kit, Sigma-Aldrich, St. Louis, MO, USA).
The half-maximal inhibitory concentration (IC50) against AChE, BChE and BACE-1 were calculated using GraphPad Prism (version 9.0, La Jolla, CA, USA) as follows:(2) Y=Bottom+Top−Bottom/1+10^((logIC50−X) × (HillSlope)), where Y is response, decreasing as X increases, X is log of dose or concentration, Top and Bottom are plateaus in same units as Y, and Hillslope is data slope factor or hill slope, unitless.

[6] = system: transgenic Drosophila model for AD; conditions: cited from earlier work
AChE = conditions: cited from earlier work; for IC50: read-out: AChE IC50
[7] = target: butyrylcholinesterase (BChE) (Equus caballus, UniProt P81908); conditions: for interaction with donepezil to inhibit BChE: in combination with donepezil; for BChE inhibition (%): Figure 3
Procedure: (§2) AChE and BChE inhibition were determined using well-established protocols without modifications [55]. For BACE-1 inhibition, we complied with the manufacturer’s instructions (BACE-1 FRET assay kit, Sigma-Aldrich, St. Louis, MO, USA).

[8] = system: S. typhimurium TA98 and TA100; conditions: TA98 and TA100, with/without S9 extract; cited from earlier work
β-secretase (BACE-1) = target: T1, β-secretase (BACE-1) (Homo sapiens, UniProt P56817); test: biochemical; format: biochemical; conditions: for BACE-1 inhibition (%): Figure 4
T1 construct: purchased Sigma-Aldrich
Procedure: as §2

[9] = system: isolated rat liver nuclei; conditions: cited from earlier work
[10] = system: flies expressing human APP and BACE-1 in the developing eyes; test: Drosophila eye morphology by scanning electron microscopy; format: in vivo, Drosophila melanogaster; conditions: AD flies, 21 days
Procedure: All fly stocks were maintained in a standard medium at 25 °C, 60% humidity, and a 12 h/12 h light–dark cycle in constant climate chambers with ICH-compliant light source (BINDER GmbH, Tuttlingen, Germany). […] Flies were cultivated for 21 days at 28 °C, with food changes every three days.
The external compound eyes were then inspected using JSM-IT510 InTouchScope™ SEM Series (JEOL, Peabody, MA, USA) in a vacuum mode.

[11] = cited from earlier work
[12] = system: Salmonella typhimurium TA102; conditions: TA102, +S9, positive control
Procedure: as §1

[13] = system: Salmonella typhimurium TA98; test: Bacterial reverse mutation test (Ames test), TA98; conditions: TA98, +S9, positive control
Procedure: as §1

human lymphocytes = conditions: cited from earlier work
PC12 cells = conditions: Aβ25–35-induced oxidative stress in PC12 cells; cited from earlier work
[14] = system: V79 Chinese hamster lung cells; conditions: cited from earlier work
BACE-1 = conditions: cited from earlier work
[15] = sample alone at IC20 (donepezil 0)
[16] = sample alone at IC30 (donepezil 0)

T1 sequence (P56817 46-501): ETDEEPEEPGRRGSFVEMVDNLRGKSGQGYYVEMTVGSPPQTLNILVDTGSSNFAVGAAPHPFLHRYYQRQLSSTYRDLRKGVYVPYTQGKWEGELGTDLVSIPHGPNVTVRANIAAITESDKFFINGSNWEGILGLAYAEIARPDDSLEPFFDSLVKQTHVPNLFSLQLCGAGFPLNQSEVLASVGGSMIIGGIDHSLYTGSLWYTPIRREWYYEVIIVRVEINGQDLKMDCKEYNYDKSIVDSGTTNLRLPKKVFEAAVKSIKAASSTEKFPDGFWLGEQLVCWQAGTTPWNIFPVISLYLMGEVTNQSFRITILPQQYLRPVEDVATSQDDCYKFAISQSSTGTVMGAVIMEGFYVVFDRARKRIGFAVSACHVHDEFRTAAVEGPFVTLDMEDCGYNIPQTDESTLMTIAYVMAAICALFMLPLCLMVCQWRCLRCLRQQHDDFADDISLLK
Sequence of butyrylcholinesterase (BChE) (P81908 whole entry): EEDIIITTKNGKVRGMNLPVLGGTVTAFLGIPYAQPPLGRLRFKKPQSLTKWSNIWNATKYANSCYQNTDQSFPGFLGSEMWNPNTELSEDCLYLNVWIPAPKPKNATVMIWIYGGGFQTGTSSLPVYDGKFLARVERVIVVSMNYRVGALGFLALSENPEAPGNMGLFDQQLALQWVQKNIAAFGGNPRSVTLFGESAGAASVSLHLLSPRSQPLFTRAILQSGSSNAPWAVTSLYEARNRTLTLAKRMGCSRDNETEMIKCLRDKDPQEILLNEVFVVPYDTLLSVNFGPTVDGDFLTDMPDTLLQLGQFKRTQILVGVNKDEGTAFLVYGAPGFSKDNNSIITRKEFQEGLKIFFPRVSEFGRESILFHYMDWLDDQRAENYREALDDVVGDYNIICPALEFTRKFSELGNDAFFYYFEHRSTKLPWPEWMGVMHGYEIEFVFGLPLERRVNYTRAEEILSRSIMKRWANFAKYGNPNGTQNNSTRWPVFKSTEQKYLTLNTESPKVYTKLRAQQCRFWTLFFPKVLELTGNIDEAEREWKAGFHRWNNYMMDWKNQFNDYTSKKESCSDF
Sequence of acetylcholinesterase (AChE) (O42275 24-633): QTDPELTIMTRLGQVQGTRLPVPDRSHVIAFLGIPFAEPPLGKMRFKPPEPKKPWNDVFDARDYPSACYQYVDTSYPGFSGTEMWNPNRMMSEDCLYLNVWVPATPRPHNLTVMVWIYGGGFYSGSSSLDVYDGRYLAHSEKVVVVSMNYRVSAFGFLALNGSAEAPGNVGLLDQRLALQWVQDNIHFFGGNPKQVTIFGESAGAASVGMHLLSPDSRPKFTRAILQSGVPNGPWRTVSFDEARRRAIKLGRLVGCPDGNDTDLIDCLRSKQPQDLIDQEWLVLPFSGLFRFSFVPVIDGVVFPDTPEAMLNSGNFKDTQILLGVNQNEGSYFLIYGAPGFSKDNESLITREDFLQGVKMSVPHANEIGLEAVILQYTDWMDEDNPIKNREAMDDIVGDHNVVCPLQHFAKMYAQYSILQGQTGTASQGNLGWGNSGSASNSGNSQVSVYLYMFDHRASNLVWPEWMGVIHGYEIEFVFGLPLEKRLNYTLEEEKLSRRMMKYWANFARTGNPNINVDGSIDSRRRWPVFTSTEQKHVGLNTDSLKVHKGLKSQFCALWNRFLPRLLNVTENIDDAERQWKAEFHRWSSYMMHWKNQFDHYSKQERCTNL

Nc1c2ccccc2nc2ccccc12 [9-AA, 9-aminoacridine]
MR (mutagenicity ratio) ([1]; TA1537, −S9, positive control): 86.67
MR class ([1]; TA1537, −S9, positive control): (+) ((+): indicates the mutagenicity ratio (MR) is ≥2)
Revertant Colonies ([1]; TA1537, −S9, positive control): 780.00 ± 24.11

[N-]=[N+]=[N-].[Na+] [NaN3, sodium azide]
MR (mutagenicity ratio) ([2]; TA100, −S9, positive control): 17.14
MR class ([2]; TA100, −S9, positive control): (+) ((+): indicates the mutagenicity ratio (MR) is ≥2)
Revertant Colonies ([2]; TA100, −S9, positive control): 1145.33 ± 52.03
MR (mutagenicity ratio) ([3]; TA1535, −S9, positive control): 18.90
MR class ([3]; TA1535, −S9, positive control): (+) ((+): indicates the mutagenicity ratio (MR) is ≥2)
Revertant Colonies ([3]; TA1535, −S9, positive control): 214.17 ± 9.51

O=c1c(O)c(-c2ccc(O)cc2)oc2cc(O)cc(O)c12 [Kaempferol, kaempferol]
tumor induction [4]: did not significantly induce tumors
interaction with donepezil to inhibit AChE [5]: slightly antagonized
memory loss, climbing ability and AChE activity [6]: delayed memory loss by maintaining climbing ability and reducing AChE activity
mode of AChE inhibition (AChE): reversible mixed mode
IC50 (AChE): 12.4 µM
interaction with donepezil to inhibit BChE [7]: slight synergism
BChE inhibition (%) [7, 15]: 22%
BChE inhibition (%) [7, 16]: 29%
genotoxicity in S. typhimurium [8]: genotoxicity exclusively when the S9 extract was present
interaction with donepezil on BACE-1 (β-secretase (BACE-1); in combination with donepezil): slightly antagonistically
IC50 (β-secretase (BACE-1); read-out: Half-Maximal Inhibitory Concentration (IC50) BACE-1 (converted)): 299 µM
BACE-1 inhibition (%) (β-secretase (BACE-1); [15]): 16%
BACE-1 inhibition (%) (β-secretase (BACE-1); [16]): 29%
nuclear DNA damages and lipid peroxidation [9]: induced nuclear DNA damages and lipid peroxidation

COc1cc2c(cc1OC)C(=O)C(CC1CCN(Cc3ccccc3)CC1)C2 (stereo not shown) [Donepezil, donepezil]
eye morphology (retina degeneration, ommatidia and bristles) ([10]; donepezil 2.5 µM): did not reverse retina degeneration
eye morphology (retina degeneration, ommatidia and bristles) ([10]; donepezil 5 µM): did not reverse retina degeneration
eye morphology (retina degeneration, ommatidia and bristles) ([10]; donepezil 10 µM): eye phenotypes roughly similar to the negative control

O=C(/C=C/c1ccc(O)c(O)c1)O[C@H](Cc1ccc(O)c(O)c1)C(=O)O [rosmarinic acid]
crossing of the BBB [11]: reported to cross the BBB

Nc1ccc2cc3ccccc3cc2c1 [2-AA, 2-aminoanthracen]
MR (mutagenicity ratio) ([2]; TA100, +S9, positive control): 10.04
MR class ([2]; TA100, +S9, positive control): (+) ((+): indicates the mutagenicity ratio (MR) is ≥2)
Revertant Colonies ([2]; TA100, +S9, positive control): 876.67 ± 34.21
MR class [12]: (+) ((+): indicates the mutagenicity ratio (MR) is ≥2)
Revertant Colonies [12]: 960.67 ± 29.07
MR (mutagenicity ratio) ([3]; TA1535, +S9, positive control): 33.32
MR class ([3]; TA1535, +S9, positive control): (+) ((+): indicates the mutagenicity ratio (MR) is ≥2)
Revertant Colonies ([3]; TA1535, +S9, positive control): 349.83 ± 18.89
MR (mutagenicity ratio) [13]: 14.15
MR class [13]: (+) ((+): indicates the mutagenicity ratio (MR) is ≥2)
Revertant Colonies [13]: 1396.00 ± 48.94
MR (mutagenicity ratio) ([1]; TA1537, +S9, positive control): 20.71
MR class ([1]; TA1537, +S9, positive control): (+) ((+): indicates the mutagenicity ratio (MR) is ≥2)
Revertant Colonies ([1]; TA1537, +S9, positive control): 203.67 ± 5.56

O=c1c(O)c(-c2ccc(O)c(O)c2)oc2cc(O)cc(O)c12 [Quercetin, quercetin]
tumor induction [4]: did not significantly induce tumors
micronuclei induction (human lymphocytes): induced micronuclei
neuroprotective effects (PC12 cells): demonstrated neuroprotective effects
interaction with donepezil to inhibit AChE [5]: slightly antagonized
interaction with donepezil to inhibit BChE [7]: slight synergism
BChE inhibition (%) [7, 15]: 20%
BChE inhibition (%) [7, 16]: 32%
micronuclei induction [14]: induced micronuclei
genotoxicity in S. typhimurium [8]: genotoxicity in the bacterial strains both with and without the S9 extract
BACE-1 inhibition (%) (β-secretase (BACE-1); [15]): 22%
BACE-1 inhibition (%) (β-secretase (BACE-1); [16]): 33%
